Values joined by “and” are separate entries in the source; they are usually repeats but may differ in a detail not shown here. Equal values may be shown once. Active and inactive are the calls of the source.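 Rule for the calls: active = fitted curve reaches 40% activation below the top valid dose in every replicate test, signal rising; inconclusive = replicate tests disagree on the call; inactive = all replicate tests inactive, including opposite-direction effects.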

Tested on in one assay: not listed separately
Kind of assay: glycosylation-sensitive ERlucT reporter luminescence gain – D54 ERlucT glioma cells, dry powder, set 6, N-linked glycosylation inhibitor project, dose response (AID 1053121). The settings on record: D54 ERlucT glioma cells, NLG luciferase reporter gain-of-signal, 24 h; at 19.5 µM (top of the series).
With `CN(C)S(=O)(=O)c1ccc(N2CCCC2)c(C(=O)Nc2ccncc2)c1`, the activation (reporter increase) was 16.1% (inactive).
Same read-out and setting: then `O=C1CCN(Cc2ccccc2)c2cc3ccccc3cc21`, with 30.6% (inactive); and `COc1ccccc1NC(=O)c1cc(S(=O)(=O)N(C)C)ccc1N1CCCC1`, with 30.1% (inactive); and `Cc1cnc(NC(=O)c2cc(S(=O)(=O)N(C)c3ccccc3)ccc2N2CCCC2)s1`, with 10.9% (inactive).
Same read-out and setting: then `CN(C)S(=O)(=O)c1ccc(N2CCCC2)c(C(=O)Nc2ccccc2F)c1`, with -4.62% (inactive); and `Cc1cc(C)nc(/N=C(\N)Nc2ccc(OCc3ccccc3)cc2)n1`, with -50% (inactive); and `COc1cccc2sc(NC(=O)c3cc(S(=O)(=O)N(C)C)ccc3N3CCCC3)nc12`, with 5.88% (inactive).
Same read-out and setting: then `COc1ccccc1CSc1nnc(-c2ccccc2)o1`, with -67.6% (inactive); and `CCCNS(=O)(=O)c1cccc(C(=O)OCc2cc(=O)oc3cc(OC)ccc23)c1`, with -91.2% (inactive).
For `Cc1ccccc1NC(=O)c1cc(S(=O)(=O)N(C)C)ccc1N1CCCC1`, the activation (reporter increase) was 8.74% (inactive).
Still for that read-out and setting: the value for `c1ccc(CSc2nnc(-c3ccccc3)o2)cc1` was -94.1% (inactive); that for `CN(C)C(=O)c1cc(S(=O)(=O)N(C)C)ccc1N1CCCC1` was 8.83% (inactive).

The subject of the next assay is D54 ERlucT glioma cells, NLG luciferase reporter gain-of-signal, 24 h. The description is as above.
Conditions: not given
Take `Cc1cnc(NC(=O)c2cc(S(=O)(=O)N(C)C)ccc2N2CCCCC2)s1`: the AC40 was 13.7 µM.
On the same count and under the same terms, then `CCN(CC)S(=O)(=O)c1ccc(N2CCCC2)c(C(=O)Nc2ncc(C)s2)c1`, with 12 µM; and `Cc1[nH][nH]c(=O)c1C(c1ccc(-c2ccc(Cl)c(Cl)c2)o1)c1c(C)[nH][nH]c1=O`, with 1.02 µM.
The same measure, in the same setting: the value for `CN(C)S(=O)(=O)c1ccc(N2CCCC2)c(C(=O)Nc2ccccc2)c1` was 1.08 µM.
As to `CCOc1ccc(NC(=O)c2cc(OC)nc3ccccc23)cc1`, the AC40 was 0.41 µM.
`CCN(CC)CCOc1ccc2c(c1)C(=NNC(=O)c1ccccn1)c1cc(OCCN(CC)CC)ccc1-2`: the AC40 is 3.07 µM.
On the same count and under the same terms, then `Cc1ccc(C(=O)c2cc([N+](=O)[O-])ccc2N2CCOCC2)cc1C`, with 1.1 µM; and `COc1ccc(NC(=O)c2cc(S(=O)(=O)N(C)C)ccc2N2CCCC2)cc1`, with 10.3 µM; and `Cc1cnc(NC(=O)c2cc(S(=O)(=O)N3CCCC3)ccc2N2CCCC2)s1`, with 0.934 µM.
Same read-out and setting: the value for `CCn1c2ccccc2c2cc(NC(=O)c3cc(OC)c(OC)c(OC)c3)ccc21` was 0.0419 µM; that for `Cc1cnc(NC(=O)c2cc(S(=O)(=O)N(C)C)ccc2N2CCC2)s1` was 0.364 µM; that for `Cc1cnc(NC(=O)c2cc(S(=O)(=O)N3CCNCC3)ccc2N2CCCC2)s1` was 9.46 µM.
On the same count and under the same terms, then `Cc1nnc(NC(=O)c2cc(S(=O)(=O)N(C)C)ccc2N2CCCC2)s1`, with 4.57 µM.
`Cc1ccc(CCC(=O)Nc2ncc(Cc3cc(Cl)ccc3Cl)s2)o1`: the AC40 is 0.205 µM.
Same read-out and setting: then `Cc1cccc(C)c1OCCNC(=O)C(=O)NCc1ccco1`, with 3.62 µM; and `COC(=O)c1cn(C(=O)c2ccc(OC)cc2)c2ccccc12`, with 1.21 µM; and `COc1ccc(NC(=O)C(=O)c2cn(CC(=O)N3CCCC3)c3ccccc23)cc1`, with 0.0621 µM.
For the compound `CCN(CC)c1ccc(S(=O)(=O)N(C)C)cc1C(=O)Nc1ncc(C)s1`, the AC40 was 3.21 µM.
On the same count and under the same terms, then `Cc1cnc(NC(=O)c2cc(S(=O)(=O)N3CCOCC3)ccc2N2CCCC2)s1`, with 0.307 µM; and `COc1cc(Nc2c3c(nc4ccccc24)CCCC3)cc(OC)c1OC`, with 3.59 µM; and `CC(=O)c1cccc(NC(=O)CSc2ncc(C(=O)Nc3ccccc3)c(=O)n2C)c1`, with 6.87 µM.
The same measure, in the same setting: the value for `Cc1cnc(NC(=O)c2cc(S(=O)(=O)N(C)C)ccc2N2CCCC2)s1` was 0.421 µM and 0.0693 µM and 0.209 µM; that for `CCOc1ccc(S(=O)(=O)NCc2ccccn2)cc1NC(=O)c1ccccc1F` was 1.37 µM; that for `CCOC(=O)c1ccc(Oc2cc(C)nc(SC)n2)cc1` was 3.89 µM.
Turning to `Cc1cnc(NC(=O)c2cc(S(=O)(=O)NCc3ccccc3)ccc2N2CCCC2)s1`, the AC40 is 3.67 µM.
Same read-out and setting: then `CCCCOc1ccccc1C1CC(=O)NC2=C1C(=O)CCC2` (stereo not given), with 0.948 µM.
The same measure, in the same setting: the value for `Cc1ccc(/C=N/NC(=O)C2COc3ccccc3O2)s1` (stereo not given) was 1.21 µM.
The same measure, in the same setting: then `CCCOC(=O)c1[nH]c2c(c1C)C(=O)CC(c1cccs1)C2` (stereo not given), with 1.5 µM; and `CC(=O)N1CCC(=O)c2cc3ccccc3cc21`, with 2.42 µM.
For `COc1cc(C(=O)NCCOc2cc(C)cc(C)c2)cc(OC)c1OC`, the AC40 is 1.85 µM.
Same read-out and setting: then `Cc1cc(C)cc(C(=O)N2CC(=O)Nc3ccccc32)c1`, with 12.1 µM; and `Cc1ccc2cc(CN(CCCN(C)C)C(=O)NCc3ccccc3)c(=O)[nH]c2c1C`, with 2.68 µM; and `CN(C)S(=O)(=O)c1ccc(N2CCCC2)c(C(=O)Nc2nc3ccccc3s2)c1`, with 0.467 µM.
Still for that read-out and setting: the value for `CCOC(=O)COc1cccc2c(=O)n(CC(=O)NCc3ccccc3)ccc12` was 0.121 µM; that for `Cc1cc(NC(=O)CSc2nc(-c3ccco3)cc(C(F)(F)F)n2)no1` was 0.434 µM.
On the same count and under the same terms, the value for `CCN(CC)CCCNc1nc2cc(OC)c(OC)cc2c2nc(-c3ccccc3)nn12` was 1.66 µM; that for `CCC1=Nc2cc(C(=O)NCCCOC)ccc2Sc2ccccc21` was 0.404 µM.
For `CN(C)S(=O)(=O)c1ccc(N2CCCC2)c(C(=O)Nc2cccc(F)c2)c1`, the AC40 is 2.61 µM.
On to `Cc1ccc(Oc2ccc(S(=O)(=O)N3CCOCC3)cc2C(N)=O)c(-n2nc3ccccc3n2)c1`, for which the AC40 is 3.4 µM.
On the same count and under the same terms, the value for `COc1cccc(N2CCN(C(=O)c3ccc(CS(=O)c4ccc(C)cc4)o3)CC2)c1` (stereo not given) was 0.237 µM; that for `CCN(CC)CCC(=O)Nc1cccc2c1C(=O)c1ccccc1C2=O` was 0.729 µM.
The same measure, in the same setting: then `COc1cc(-c2nnc(SCC3(c4ccc(Br)cc4)OCCO3)o2)cc(OC)c1OC`, with 1.34 µM.
For `Nc1nc(=S)c2ncn([C@@H]3O[C@H](CO)[C@@H](O)[C@H]3O)c2[nH]1`, the AC40 was 0.771 µM.
The same measure, in the same setting: then `CC(=O)c1ccc(Oc2cc(C)nc(-n3nc(C)cc3C)n2)cc1`, with 0.645 µM; and `O=C(N/N=C/c1ccc(Cl)cc1)c1sccc1OCc1ccc(F)cc1`, with 0.839 µM; and `Cc1ccc(NC(=O)c2cc(S(=O)(=O)N(C)C)ccc2N2CCCC2)cc1`, with 1.24 µM.
The same measure, in the same setting: the value for `Cc1cnc(NC(=O)c2cc(S(=O)(=O)N(C)C)ccc2N(C)C)s1` was 5.2 µM.
Still for that read-out and setting: then `Cc1csc(NC(=O)c2cc(S(=O)(=O)N(C)C)ccc2N2CCCC2)n1`, with 0.575 µM; and `CC(=O)N[C@H]1[C@@H](O[C@@H]2OC(C[C@@H](O)C3O[C@@H](n4ccc(=O)[nH]c4=O)[C@H](O)[C@@H]3O)[C@H](O)[C@H](O)[C@H]2NC(=O)/C=C/CCCCCCCCCCC(C)C)O[C@H](CO)[C@@H](O)[C@@H]1O` (stereo not given in full), with 0.278 µM; and `Cc1cnc(NC(=O)c2cc(S(=O)(=O)N3CCCCC3)ccc2N2CCCC2)s1`, with 7.07 µM.
Consider `COc1ccccc1OCC(=O)NNC(=O)c1ccoc1C`, for which the AC40 is 0.633 µM.
With `Cc1cnc(NC(=O)c2cc(S(=O)(=O)N(C)C)ccc2C2CCCC2)s1`, the AC40 is 2.21 µM.
As to `CN(C)S(=O)(=O)c1ccc(N2CCCC2)c(C(=O)Nc2nccs2)c1`, the AC40 is 1.91 µM.
